According to patent publication US9315491B2 (DEVELOPMENT CENTER FOR BIOTECHNOLOGY, priority 2009, dated 2016):

Key:
[1] = tested on: p-Akt S473 (mTORC2); test: Immunoblotting, PI3K/Akt/mTOR signal transduction, p-Akt S473; type: cell-based; settings: Homo sapiens; PC-3 cell
Source text: (§1) For immunoblotting experiments, A549 cells were inoculated to the wells of a 6-well culture plate and cultured overnight. […] Proteins were separated by SDS-PAGE electrophoresis and transferred to PVDF membrane. Protein expression was immunobloted by various primary antibodies and detected by Immobilon Western Chemiluminescent HRP Substrate (Millipore). Antibody against Akt, phosphor-Akt (Ser473), phosphor-Akt (Thr308), p70 S6 Kinase, phosphor-p70 S6 Kinase (Thr389), 4E-BP1, and phosphor-4E-BP1 (Thr37/46) were purchased form Cell Signaling Technology.

[2] = tested on: p-S6K (mTORC1); test: Immunoblotting, PI3K/Akt/mTOR signal transduction, p-S6K; type: cell-based; settings: Homo sapiens; PC-3 cell
Source text: as §1

[3] = biological target: PI3K (p110α/p85α) (Homo sapiens (Human), UniProt P42336); test: PI3K HTRF enzyme assay, p110α/p85α; type: biochemical; settings: read-out: % inhibition @ 500 nM p110α; compound at 500 nM, 10 μM ATP
Sequence of PI3K (p110α/p85α) (P42336 whole entry, species assumed): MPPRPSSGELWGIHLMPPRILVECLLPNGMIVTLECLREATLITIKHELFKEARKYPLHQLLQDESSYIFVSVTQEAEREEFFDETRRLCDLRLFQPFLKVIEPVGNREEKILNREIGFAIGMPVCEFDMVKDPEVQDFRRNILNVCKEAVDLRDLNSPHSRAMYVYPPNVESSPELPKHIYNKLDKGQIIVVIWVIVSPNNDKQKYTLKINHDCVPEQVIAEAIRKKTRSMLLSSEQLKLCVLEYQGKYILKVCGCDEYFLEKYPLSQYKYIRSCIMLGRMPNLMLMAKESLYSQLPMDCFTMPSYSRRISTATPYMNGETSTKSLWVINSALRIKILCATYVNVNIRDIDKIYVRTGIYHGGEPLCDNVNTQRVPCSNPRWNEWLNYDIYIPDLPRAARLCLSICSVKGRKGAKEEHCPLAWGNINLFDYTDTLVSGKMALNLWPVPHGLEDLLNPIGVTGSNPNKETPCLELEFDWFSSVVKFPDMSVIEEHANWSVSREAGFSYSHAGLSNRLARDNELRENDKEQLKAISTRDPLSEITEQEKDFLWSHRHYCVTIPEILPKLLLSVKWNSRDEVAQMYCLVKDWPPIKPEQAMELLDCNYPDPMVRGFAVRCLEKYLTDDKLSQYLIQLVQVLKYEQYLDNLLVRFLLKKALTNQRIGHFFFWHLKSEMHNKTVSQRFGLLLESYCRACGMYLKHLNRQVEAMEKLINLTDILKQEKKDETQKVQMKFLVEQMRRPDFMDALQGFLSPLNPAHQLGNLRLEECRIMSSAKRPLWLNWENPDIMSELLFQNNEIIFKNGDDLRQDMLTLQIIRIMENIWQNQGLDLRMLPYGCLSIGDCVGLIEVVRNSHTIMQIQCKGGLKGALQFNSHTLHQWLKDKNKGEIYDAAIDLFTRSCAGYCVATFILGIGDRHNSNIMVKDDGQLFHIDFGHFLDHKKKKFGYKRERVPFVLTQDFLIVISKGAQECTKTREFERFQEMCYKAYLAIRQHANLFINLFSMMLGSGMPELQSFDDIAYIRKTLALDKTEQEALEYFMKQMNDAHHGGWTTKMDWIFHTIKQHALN
Sequence of PI3K (p110α/p85α) (P27986 whole entry partner, species assumed): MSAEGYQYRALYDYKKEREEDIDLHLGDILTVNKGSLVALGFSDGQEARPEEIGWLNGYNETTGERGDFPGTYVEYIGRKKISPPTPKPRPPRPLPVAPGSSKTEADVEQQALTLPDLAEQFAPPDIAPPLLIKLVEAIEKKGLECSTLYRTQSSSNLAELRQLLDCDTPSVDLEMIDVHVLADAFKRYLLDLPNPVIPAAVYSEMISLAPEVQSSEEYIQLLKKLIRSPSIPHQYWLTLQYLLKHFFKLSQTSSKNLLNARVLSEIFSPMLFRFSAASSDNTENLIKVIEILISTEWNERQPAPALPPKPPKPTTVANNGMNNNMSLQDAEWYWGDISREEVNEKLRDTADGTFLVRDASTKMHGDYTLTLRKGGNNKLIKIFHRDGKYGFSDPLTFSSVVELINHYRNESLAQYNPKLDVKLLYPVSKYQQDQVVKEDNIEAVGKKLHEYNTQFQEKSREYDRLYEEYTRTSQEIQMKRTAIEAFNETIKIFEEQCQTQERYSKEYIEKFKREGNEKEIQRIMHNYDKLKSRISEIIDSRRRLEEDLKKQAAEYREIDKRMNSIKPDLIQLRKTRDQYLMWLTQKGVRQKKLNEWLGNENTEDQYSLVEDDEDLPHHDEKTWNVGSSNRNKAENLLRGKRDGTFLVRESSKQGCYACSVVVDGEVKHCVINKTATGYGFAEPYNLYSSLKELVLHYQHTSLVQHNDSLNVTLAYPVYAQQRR
In short: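 Recombinant PI3K heterodimers with PIP2 substrate; reactions ran 30 min at room temperature with 10 μM ATP for p110α/p85α and 100 μM ATP for p110β/p85α. After stop, HTRF detection followed 17 h incubation in the dark at room temperature; HTRF ratio used as read-out.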

[4] = biological target: PI3K (p110β/p85α) (Homo sapiens (Human), UniProt P42338); test: PI3K HTRF enzyme assay, p110β/p85α; type: biochemical; settings: read-out: % inhibition @ 500 nM p110β; compound at 500 nM, 100 μM ATP
Sequence of PI3K (p110β/p85α) (P42338 whole entry, species assumed): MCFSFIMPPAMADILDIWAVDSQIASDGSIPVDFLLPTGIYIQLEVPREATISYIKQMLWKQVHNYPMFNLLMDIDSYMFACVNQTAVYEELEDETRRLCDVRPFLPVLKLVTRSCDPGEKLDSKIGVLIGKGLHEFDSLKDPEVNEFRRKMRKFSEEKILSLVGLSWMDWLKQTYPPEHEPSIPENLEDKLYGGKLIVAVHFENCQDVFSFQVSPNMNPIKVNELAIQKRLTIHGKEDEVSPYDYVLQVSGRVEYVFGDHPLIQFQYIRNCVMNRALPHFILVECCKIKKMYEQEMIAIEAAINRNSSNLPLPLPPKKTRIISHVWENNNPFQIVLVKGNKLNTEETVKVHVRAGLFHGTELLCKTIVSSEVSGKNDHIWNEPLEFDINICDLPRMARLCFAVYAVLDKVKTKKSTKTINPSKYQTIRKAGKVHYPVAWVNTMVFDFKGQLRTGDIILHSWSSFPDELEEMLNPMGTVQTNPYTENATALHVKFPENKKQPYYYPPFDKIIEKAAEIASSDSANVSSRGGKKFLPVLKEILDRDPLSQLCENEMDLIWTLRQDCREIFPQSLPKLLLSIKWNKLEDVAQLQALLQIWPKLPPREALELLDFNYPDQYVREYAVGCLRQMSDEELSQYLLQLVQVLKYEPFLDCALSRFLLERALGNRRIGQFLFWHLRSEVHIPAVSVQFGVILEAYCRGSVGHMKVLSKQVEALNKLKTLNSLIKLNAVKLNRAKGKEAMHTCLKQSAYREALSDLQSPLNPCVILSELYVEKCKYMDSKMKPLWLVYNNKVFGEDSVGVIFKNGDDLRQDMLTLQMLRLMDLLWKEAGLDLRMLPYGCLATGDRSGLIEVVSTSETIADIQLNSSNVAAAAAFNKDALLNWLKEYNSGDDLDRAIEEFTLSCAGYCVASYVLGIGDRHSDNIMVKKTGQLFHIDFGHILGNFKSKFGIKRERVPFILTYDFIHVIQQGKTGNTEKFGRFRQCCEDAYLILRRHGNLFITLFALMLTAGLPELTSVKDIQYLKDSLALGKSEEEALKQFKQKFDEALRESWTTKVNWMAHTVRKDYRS
Sequence of PI3K (p110β/p85α) (P27986 whole entry partner, species assumed): as the sequence (P27986 whole entry partner, species assumed) above
Method: Recombinant PI3K (p110α/p85α) and PI3K (p110β/p85α) were from Millipore. […] Briefly, the compounds of interest dissolved in 100% DMSO were dispensed in all wells, following which the mixture of PIP2 and enzyme was added. PI3K (p110α/p85α) and PI3K (p110β/p85α) enzyme reactions were initiated in the presence of 10 μM and 100 μM ATP, respectively, and incubated for 30 min at room temperature. STOP solution prepared 2 hours prior to use was added to stop reactions, and mixed well. Detection solution prepared 2 hours prior to use was added, and incubated at room temperature for 17 hours in the dark. […] HTRF ration was calculated as follows: […]

[5] = biological target: recombinant mTOR (Homo sapiens (Human), UniProt P42345); test: mTOR kinase assay (33P incorporation into 4EBP1); type: biochemical; settings: compound at 10 μM, 10 μM ATP
Sequence of recombinant mTOR (P42345 1360-2549): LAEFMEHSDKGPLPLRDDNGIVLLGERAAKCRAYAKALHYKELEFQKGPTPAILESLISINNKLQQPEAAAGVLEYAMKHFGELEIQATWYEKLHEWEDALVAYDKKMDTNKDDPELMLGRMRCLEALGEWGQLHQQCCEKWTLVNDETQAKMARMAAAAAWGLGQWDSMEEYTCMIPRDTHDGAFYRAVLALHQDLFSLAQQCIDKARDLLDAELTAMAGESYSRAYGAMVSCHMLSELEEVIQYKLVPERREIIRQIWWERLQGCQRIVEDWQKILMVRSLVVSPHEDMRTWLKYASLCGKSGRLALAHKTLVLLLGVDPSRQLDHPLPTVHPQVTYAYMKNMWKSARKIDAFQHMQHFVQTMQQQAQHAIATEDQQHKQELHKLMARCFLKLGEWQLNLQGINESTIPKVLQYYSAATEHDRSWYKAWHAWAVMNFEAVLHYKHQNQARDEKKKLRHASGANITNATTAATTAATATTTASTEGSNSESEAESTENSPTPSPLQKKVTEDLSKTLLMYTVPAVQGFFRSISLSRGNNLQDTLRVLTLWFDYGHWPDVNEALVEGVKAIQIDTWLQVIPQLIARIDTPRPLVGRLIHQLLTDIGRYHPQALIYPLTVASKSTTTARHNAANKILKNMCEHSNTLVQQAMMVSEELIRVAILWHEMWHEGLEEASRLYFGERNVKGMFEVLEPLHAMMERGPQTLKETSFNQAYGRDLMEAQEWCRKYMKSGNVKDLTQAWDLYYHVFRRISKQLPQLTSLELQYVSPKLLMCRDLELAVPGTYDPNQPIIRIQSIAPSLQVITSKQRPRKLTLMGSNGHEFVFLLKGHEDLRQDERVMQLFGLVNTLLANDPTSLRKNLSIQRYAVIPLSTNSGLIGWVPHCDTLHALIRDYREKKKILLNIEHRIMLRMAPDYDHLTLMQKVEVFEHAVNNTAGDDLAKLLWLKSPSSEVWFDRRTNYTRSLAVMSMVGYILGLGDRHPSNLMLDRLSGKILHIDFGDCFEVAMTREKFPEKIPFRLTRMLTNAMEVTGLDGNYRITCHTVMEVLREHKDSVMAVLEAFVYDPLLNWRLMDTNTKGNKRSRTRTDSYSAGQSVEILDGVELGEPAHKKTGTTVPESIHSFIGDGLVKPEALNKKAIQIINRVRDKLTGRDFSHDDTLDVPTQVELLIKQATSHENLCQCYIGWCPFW
In short: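 Recombinant human mTOR (50 ng) phosphorylated His-tagged 4EBP1 (300 ng) with 10 μM ATP plus [γ-33P]-ATP in HEPES pH 7.5, MnCl2, EGTA and DTT for 30 min at 30° C. Labelled 4EBP1 was filter-captured and counted. IC50 was derived from eight-point duplicate dilution series.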

[6] = tested on: PC-3 cells; test: Antiproliferation assay (MTS), PC-3; type: cell-based; settings: Homo sapiens, PC3, 72 hours of drug treatment
Method: (1) Antiproliferation Assay
PC-3, U-87 MG, HCC1954 and BT474 cell lines were purchased from the American Type Culture Collection (ATCC, USA). PC-3 was grown in F12K medium (GIBCO) containing 10% FBS. U-87 MG was grown in Eagle's minimum essential medium (MEM, Sigma) supplemented with nonessential amino acids, L-glutamine, sodium pyruvate, and 10% FBS. HCC1954 was grown in RPMI medium (GIBCO) containing 10% FBS. […] All cells were incubated in a humidified atmosphere containing 5% CO2 at 37° C.
Cell lines were inoculated to the wells of a 96-well culture plate with 1000-5000 cells per well. The compounds were prepared and used to treat cells with less than 1% DMSO. After 72 hours of drug treatment, the viability of each cell line was examined by CellTiter 96 Aqueous Non-Radioactive Cell Proliferation Assay (Promega). The living cells were detectable by conversion of MTS into aqueous, soluble formazan. MTS/PMS solution was freshly prepared and 20 μl of MTS/PMS solution was added to each well of the 96-well cultured plate. The assay plate was incubated for 3 hours and the absorbance at 490 nm was measured by EMax ELISA Reader (Molecular Devices). The IC50 values of compounds were determined after carrying out assays at eight serially diluted concentrations of each compound in triplicate, and are the mean of three separate determinations. The results were analyzed using linear regression software (GraphPad Prism 5; GraphPad Software Inc.).

[7] = tested on: A549 cells; test: Antiproliferation assay (MTS), A549; type: cell-based; settings: Homo sapiens; A549, 72 hours of drug treatment
[8] = tested on: p-Akt T308 (PI3K); test: Immunoblotting, PI3K/Akt/mTOR signal transduction, p-Akt T308; type: cell-based; settings: Homo sapiens; PC-3 cell
Source text: as §1

Compound | inhibition at 0.5 µM [3] [%] | inhibition at 10 µM [5] [%] | also measured
Cn1c(=O)n(-c2ccc(C(C)(C)C#N)cc2)c2c3cc(-c4cnc5ccccc5c4)ccc3ncc21 [BEZ-235] |  |  | IC50 [1]: 28.9 nM; IC50 [2]: < 10 nM
CS(=O)(=O)N1CCN(Cc2cc3nc(-c4cccc5[nH]ncc45)nc(N4CCOCC4)c3s2)CC1 [GDC-0941] |  |  | IC50 [1]: 11.5 nM; IC50 [2]: 451 nM
CSc1c(Cl)nc(-c2ccc(N)nc2)nc1N1CCOCC1 [MTR-0133, 5-(4-Chloro-5-methylsulfanyl-6-morpholin-4-yl-pyrimidin-2-yl)-pyridin-2-ylamine] | 70 | 93 | inhibition at 0.5 µM [4]: 4.5%
CSc1c(Cl)nc(-c2ccc(NC(=O)Nc3ccc(F)cc3)cc2)nc1N1CCOCC1 [MTR-0135, 1-[4-(4-Chloro-5-methylsulfanyl-6-morpholin-4-yl-pyrimidin-2-yl)-phenyl]-3-(4-fluoro-phenyl)-urea] | 70.1 | 90 | inhibition at 0.5 µM [4]: 14.2%
CCOc1c(C(=O)N2CCN(S(C)(=O)=O)CC2)nc(-c2ccc(NC(=O)Nc3ccccc3)cc2)nc1N1CCOCC1 [MTR-0145, 1-{4-[5-Ethoxy-4-(4-methanesulfonyl-piperazine-1-carbonyl)-6-morpholin-4-yl-pyrimidin-2-yl]-phenyl}-3-phenyl-urea] |  | 100 | IC50 [6]: 432 ± 20 nM; IC50 [7]: 1360 ± 340 nM
CSc1cnc(-c2ccc(NC(=O)Nc3ccccc3)cc2)nc1N1CCOCC1 [MTR-0162, 1-[4-(5-Methylsulfanyl-4-morpholin-4-yl-pyrimidin-2-yl)-phenyl]-3-phenyl-urea] | 102 | 95 | 
COc1cnc(-c2ccc(NC(=O)Nc3cccc(F)c3)cc2)nc1N1CCOCC1 [MTR-0164, 1-(3-Fluoro-phenyl)-3-[4-(5-methoxy-4-morpholin-4-yl-pyrimidin-2-yl)-phenyl]-urea] | 84.7 | 91 | 
COc1cnc(-c2ccc(NC(=S)Nc3cccc(F)c3)cc2)nc1N1CCOCC1 [MTR-0168, 1-(3-Fluoro-phenyl)-3-[4-(5-methoxy-4-morpholin-4-yl-pyrimidin-2-yl)-phenyl]-thiourea] | 65 | 91 | inhibition at 0.5 µM [4]: 20.2%
CCOc1c(CN2CCN(S(C)(=O)=O)CC2)nc(-c2ccc(NC(=O)Nc3ccccc3)cc2)nc1N1CCOCC1 [MTR-0169, 1-{4-[5-Ethoxy-4-(4-methanesulfonyl-piperazin-1-ylmethyl)-6-morpholin-4-yl-pyrimidin-2-yl]-phenyl}-3-phenyl-urea] | 52.7 | 96 | 
CSc1cnc(-c2ccc(NC(=O)Nc3ccc(F)cc3)cc2)nc1N1CCOCC1 [MTR-0178, 1-(4-Fluoro-phenyl)-3-[4-(5-methylsulfanyl-4-morpholin-4-yl-pyrimidin-2-yl)-phenyl]-urea] | 48.8 | 90 | 
CSc1c(Cl)nc(-c2ccc(NC(=O)Nc3cccc(NC(C)=O)c3)cc2)nc1N1CCOCC1 [MTR-0270, N-(3-{3-[4-(4-Chloro-5-methylsulfanyl-6-morpholin-4-yl-pyrimidin-2-yl)-phenyl]-ureido}-phenyl)-acetamide] | 41.1 | 96 | 
CCOc1c(C(=O)N2CCOCC2)nc(-c2ccc(NC(=O)Nc3ccc(N4CCOCC4=O)cc3)cc2)nc1N1CCOCC1 [MTR-0280, 1-{4-[5-Ethoxy-4-(morpholine-4-carbonyl)-6-morpholin-4-yl-pyrimidin-2-yl]-phenyl}-3-[4-(3-oxo-morpholin-4-yl)-phenyl]-urea] |  | 95 | IC50 [6]: 126 ± 8 nM; IC50 [7]: 382 ± 23 nM
COc1cnc(-c2ccc(NC(=O)Nc3ccc(N)cc3)cc2)nc1N1CCOCC1 [MTR-0350, 1-(4-Amino-phenyl)-3-[4-(5-methoxy-4-morpholin-4-yl-pyrimidin-2-yl)-phenyl]-urea] |  | 95 | IC50 [6]: 188 ± 6 nM; IC50 [7]: 614 ± 28 nM
CSc1cnc(-c2ccc(NC(=O)Nc3cccc(NC(C)=O)c3)cc2)nc1N1CCOCC1 [MTR-0377, N-(3-{3-[4-(5-Methylsulfanyl-4-morpholin-4-yl-pyrimidin-2-yl)-phenyl]-ureido}-phenyl)-acetamide] |  | 97 | IC50 [6]: 205 ± 6 nM; IC50 [7]: 598 ± 18 nM
CCOc1cnc(-c2ccc(NC(=O)Nc3ccc(N4CCOCC4=O)cc3)cc2)nc1-c1ccncc1 [MTR-0398, 1-[4-(5-Ethoxy-4-pyridin-4-yl-pyrimidin-2-yl)-phenyl]-3-[4-(3-oxo-morpholin-4-yl)-phenyl]-urea] | 47 | 89 | IC50 [6]: 179 ± 14 nM; IC50 [7]: 460 ± 28 nM
Oc1cccc(-c2nc(N3CCOCC3)c3oc4ncccc4c3n2)c1 [PI-103] |  |  | IC50 [1]: 35.6 nM; IC50 [2]: 64.9 nM
CO[C@H]1C[C@@H]2CC[C@@H](C)[C@@](O)(O2)C(=O)C(=O)N2CCCC[C@H]2C(=O)O[C@H]([C@H](C)C[C@@H]2CC[C@@H](O)[C@H](OC)C2)CC(=O)[C@H](C)/C=C(\C)[C@@H](O)[C@@H](OC)C(=O)[C@H](C)C[C@H](C)/C=C/C=C/C=C/1C [Rapamycin, rapamycin, reference compound] |  |  | IC50 [8]: > 1000 nM; IC50 [1]: < 10 nM; IC50 [2]: < 10 nM
